IC50 data for 25 compounds are collected here from patent US20230286948A1 (HUYABIO International, LLC, priority 2022, published 2023).

The assay deals with MLL1-WDR5 protein-protein interaction (Homo sapiens (Human), UniProt P61964). Briefly: WDR5 TR-FRET assay (MLL1-WDR5 PPI inhibition). The assay is classed as binding. To be noted: 5 nM WDR5 protein, 10 nM peptide, read-out: IC50 (nM), MLL1-WDR5 PPI inhibitory activity. The method, then:
WDR5 TR-FRET Assay Procedure: Stock compounds were transferred to the assay plate by Echo Liquid Handler. […] Stock compounds were incubated with WDR5 protein for 30 min at room temperature. Plates were covered, protected from light and incubated for 60 min at room temperature, after adding the peptide and Tb-Ab. EnVision Multimode Plate Reader (PerkinElmer) was used for the TR-FRET assay with excitation wavelength at 340 nm and emission wavelength at 495 and 520 nm. The ratio of the 520/495 wavelengths were used to assess the degree of the FRET signal. IC50 was calculated by fitting the inhibition data using XLfit software to sigmoidal dose-response model.
In general terms: Time-resolved FRET reads energy transfer from a long-lived donor to a nearby acceptor.

The structures appear in SMILES notation. Some results are limits rather than exact numbers.

Broadly, the IC50 is the midpoint of a concentration-inhibition curve. Turning to `C[C@@H]1CN(c2cc(F)c(-n3cc(C(=O)NCCCN4CCOCC4)nn3)cc2NC(=O)c2c[nH]c(=O)cc2C(F)(F)F)C[C@H](C)N1C` [Example 6, N-(4-fluoro-5-(4-((3-morpholinopropyl)carbamoyl)-1H-1,2,3-triazol-1-yl)-2-((3S,5R)-3,4,5-trimethylpiperazin-1-yl)phenyl)-6-oxo-4-(trifluoromethyl)-1,6-dihydropyridine-3-carboxamide], the 50% inhibitory concentration (IC50) came out at 7.23 nM.

As for `CSc1cc(C(F)(F)F)c(C(=O)Nc2cc(-n3cc(C(=O)NCCCN4CCOCC4)nn3)ccc2N2CCN(C)CC2)cn1` [Example 14, N-[2-(4-methylpiperazin-1-yl)-5-[4-(3-morpholinopropylcarbamoyl)triazol-1-yl]phenyl]-6-methylsulfanyl-4-(trifluoromethyl)pyridine-3-carboxamide], the IC50 was greater than 10000 nM.

In the case of `CN1CCN(c2ccc(-n3cc(C(=O)NCCCN4CCOCC4)nn3)cc2NC(=O)c2cc(C(F)(F)F)cc(C(F)(F)F)c2)CC1` [Example 47, 1-(3-(3,5-bis(trifluoromethyl)benzamido)-4-(4-methylpiperazin-1-yl)phenyl)-N-(3-morpholinopropyl)-1H-1,2,3-triazole-4-carboxamide], the IC50 is 3520 nM.

Take `Cc1c(Cl)ncc(C(=O)Nc2cc(-n3cc(C(=O)NCCCN4CCOCC4)nn3)c(F)cc2N2C[C@@H](C)N(C)[C@@H](C)C2)c1Cl` [Example 59, 4,6-dichloro-N-[4-fluoro-5-[4-(3-morpholinopropylcarbamoyl)triazol-1-yl]-2-[(3R,5S)-3,4,5-trimethylpiperazin-1-yl]phenyl]-5-methyl-pyridine-3-carboxamide]: the IC50 is greater than 10000 nM.

Regarding `CN1CCN(c2ccc(-n3cc(C(=O)NCCCN4CCOCC4)nn3)cc2NC(=O)c2cnc(Cl)cc2N)CC1` [Example 22, 4-amino-6-chloro-N-(2-(4-methylpiperazin-1-yl)-5-(4-((3-morpholinopropyl)carbamoyl)-1H-1,2,3-triazol-1-yl)phenyl)nicotinamide], the IC50 was greater than 10000 nM.

For `Cc1cc(F)ncc1C(=O)Nc1cc(-n2cc(C(=O)NCCCN3CCOCC3)nn2)ccc1N1CCN(C)CC1` [Example 25, 6-fluoro-4-methyl-N-(2-(4-methylpiperazin-1-yl)-5-(4-((3-morpholinopropyl)carbamoyl)-1H-1,2,3-triazol-1-yl)phenyl)nicotinamide], the IC50 was greater than 10000 nM.

On to `CN1CCN(c2ccc(-n3cc(C(=O)NCCCN4CCOCC4)nn3)cc2NC(=O)c2ccc(Cl)cc2C(F)(F)F)CC1` [Example 46, 1-(3-(4-chloro-2-(trifluoromethyl)benzamido)-4-(4-methylpiperazin-1-yl)phenyl)-N-(3-morpholinopropyl)-1H-1,2,3-triazole-4-carboxamide], for which the IC50 was determined as 458 nM.

As for `CN1CCN(c2ccc(-n3cc(C(=O)NCCCN4CCOCC4)nn3)cc2NC(=O)c2nnc(Cl)cc2N)CC1` [Example 33, 4-amino-6-chloro-N-(2-(4-methylpiperazin-1-yl)-5-(4-((3-morpholinopropyl)carbamoyl)-1H-1,2,3-triazol-1-yl)phenyl)pyridazine-3-carboxamide], the IC50 is greater than 10000 nM.

On to `CN1CCN(c2ccc(-n3cc(C(=O)NCCCN4CCOCC4)nn3)cc2NC(=O)c2cnc(S(C)(=O)=O)cc2C(F)(F)F)CC1` [Example 15, N-[2-(4-methylpiperazin-1-yl)-5-[4-(3-morpholinopropylcarbamoyl)triazol-1-yl]phenyl]-6-methylsulfonyl-4-(trifluoromethyl)pyridine-3-carboxamide], for which the IC50 was greater than 10000 nM.

Take `CN1CCN(c2ccc(-n3cc(C(=O)NCCCN4CCOCC4)nn3)cc2NC(=O)c2cnc(Cl)cc2Cl)CC1` [Example 19, 4,6-dichloro-N-[2-(4-methylpiperazin-1-yl)-5-[4-(3-morpholinopropylcarbamoyl)triazol-1-yl]phenyl]pyridine-3-carboxamide]: the IC50 was greater than 10000 nM.

Consider `CN1CCN(c2ccc(-n3cc(C(=O)NCCCN4CCOCC4)nn3)cc2NC(=O)c2ncc(Cl)nc2Cl)CC1` [Example 34, 3,5-dichloro-N-[2-(4-methylpiperazin-1-yl)-5-[4-(3-morpholinopropylcarbamoyl)triazol-1-yl]phenyl]pyrazine-2-carboxamide], for which the IC50 is greater than 10000 nM.

With `COc1cc(C(F)(F)F)c(C(=O)Nc2cc(-n3cc(C(=O)NCCCN4CCOCC4)nn3)ccc2N2CCN(C)CC2)cn1` [Example 16, 6-methoxy-N-(2-(4-methylpiperazin-1-yl)-5-(4-((3-morpholinopropyl)carbamoyl)-1H-1,2,3-triazol-1-yl)phenyl)-4-(trifluoromethyl)nicotinamide], the IC50 is greater than 10000 nM.

In the case of `CN1CCN(c2ccc(-n3cc(C(=O)NCCCN4CCOCC4)nn3)cc2NC(=O)c2cnc(C#N)cc2C(F)(F)F)CC1` [Example 13, 6-cyano-N-[2-(4-methylpiperazin-1-yl)-5-[4-(3-morpholinopropylcarbamoyl)triazol-1-yl]phenyl]-4-(trifluoromethyl)pyridine-3-carboxamide], the IC50 is greater than 10000 nM.

With `Cc1cc(Cl)c(C(=O)Nc2cc(-n3cc(C(=O)NCCCN4CCOCC4)nn3)ccc2N2CCN(C)CC2)cc1[N+](=O)[O-]` [Example 48, 1-[3-[(2-chloro-4-methyl-5-nitro-benzoyl)amino]-4-(4-methylpiperazin-1-yl)phenyl]-N-(3-morpholinopropyl)triazole-4-carboxamide], the half-maximal inhibitory concentration (IC50) is greater than 10000 nM.

For the compound `C[C@@H]1CN(c2cc(F)c(-n3cc(C(=O)NC4CCN(C)CC4)nn3)cc2NC(=O)c2cnc(Cl)cc2C(F)(F)F)C[C@H](C)N1C` [Example 52, 6-chloro-N-(4-fluoro-5-(4-((1-methylpiperidin-4-yl)carbamoyl)-1H-1,2,3-triazol-1-yl)-2-((3S,5R)-3,4,5-trimethylpiperazin-1-yl)phenyl)-4-(trifluoromethyl)nicotinamide], the IC50 was 287 nM.

Take `CN1CCN(c2ccc(-n3cc(C(=O)NCCCN4CCOCC4)nn3)cc2NC(=O)c2cnc(Cl)cc2C(F)(F)F)CC1` [Example 3, 6-chloro-N-(2-(4-methylpiperazin-1-yl)-5-(4-((3-morpholinopropyl)carbamoyl)-1H-1,2,3-triazol-1-yl)phenyl)-4-(trifluoromethyl)nicotinamide]: the IC50 is greater than 10000 nM.

On to `CN1CCN(c2cc(F)c(-n3cc(C(=O)NCCCN4CCOCC4)nn3)cc2NC(=O)c2cnc(Cl)cc2C(F)(F)F)CC1` [Example 7, 6-chloro-N-(4-fluoro-2-(4-methylpiperazin-1-yl)-5-(4-((3-morpholinopropyl)carbamoyl)-1H-1,2,3-triazol-1-yl)phenyl)-4-(trifluoromethyl)nicotinamide], for which the IC50 was greater than 10000 nM.

For `CN1CCN(c2ccc(-n3cc(C(=O)NCCCN4CCOCC4)nn3)cc2NC(=O)c2cnc(C(F)(F)F)cc2Cl)CC1` [Example 20, 4-chloro-N-(2-(4-methylpiperazin-1-yl)-5-(4-((3-morpholinopropyl)carbamoyl)-1H-1,2,3-triazol-1-yl)phenyl)-6-(trifluoromethyl)nicotinamide], the IC50 was greater than 10000 nM.

In the case of `COc1ccc(C(=O)Nc2cc(-n3cc(C(=O)NCCCN4CCOCC4)nn3)ccc2N2CCN(C)CC2)c(C(F)(F)F)n1` [Example 38, 6-methoxy-N-(2-(4-methylpiperazin-1-yl)-5-(4-((3-morpholinopropyl)carbamoyl)-1H-1,2,3-triazol-1-yl)phenyl)-2-(trifluoromethyl)nicotinamide], the half-inhibitory concentration (IC50) was greater than 10000 nM.

Turning to `CSc1ccc(C(=O)Nc2cc(-n3cc(C(=O)NCCCN4CCOCC4)nn3)ccc2N2CCN(C)CC2)c(C(F)(F)F)n1` [Example 43, N-(2-(4-methylpiperazin-1-yl)-5-(4-((3-morpholinopropyl)carbamoyl)-1H-1,2,3-triazol-1-yl)phenyl)-6-(methylthio)-2-(trifluoromethyl)nicotinamide], the IC50 is greater than 10000 nM.

`Cc1cc(C(F)(F)F)ncc1C(=O)Nc1cc(-n2cc(C(=O)NCCCN3CCOCC3)nn2)ccc1N1CCN(C)CC1` [Example 31, 4-methyl-N-(2-(4-methylpiperazin-1-yl)-5-(4-((3-morpholinopropyl)carbamoyl)-1H-1,2,3-triazol-1-yl)phenyl)-6-(trifluoromethyl)nicotinamide]: the concentration for half-maximal inhibition (IC50) is greater than 10000 nM.

In the case of `CN1CCN(c2ccc(-n3cc(C(=O)NCCCN4CCOCC4)nn3)cc2NC(=O)c2cnc([S+](C)[O-])nc2C(F)(F)F)CC1` (stereo not shown) [Example 28, N-(2-(4-methylpiperazin-1-yl)-5-(4-((3-morpholinopropyl)carbamoyl)-1H-1,2,3-triazol-1-yl)phenyl)-2-(methylsulfinyl)-4-(trifluoromethyl)pyrimidine-5-carboxamide], the IC50 is greater than 10000 nM.

As to `CN1CCN(c2ccc(-n3cc(C(=O)NCCCN4CCOCC4)nn3)cc2NC(=O)c2ccc(S(C)(=O)=O)nc2C(F)(F)F)CC1` [Example 44, N-[2-(4-methylpiperazin-1-yl)-5-[4-(3-morpholinopropylcarbamoyl)triazol-1-yl]phenyl]-6-methylsulfonyl-2-(trifluoromethyl)pyridine-3-carboxamide], the IC50 was greater than 10000 nM.

As for `C[C@@H]1CN(c2cc(F)c(-n3cc(C(=O)NCCCN4CCOCC4)nn3)cc2NC(=O)c2cnc(Cl)cc2C(F)(F)F)C[C@H](C)N1C` [Example 5, 6-chloro-N-(4-fluoro-5-(4-((3-morpholinopropyl)carbamoyl)-1H-1,2,3-triazol-1-yl)-2-((3S,5R)-3,4,5-trimethylpiperazin-1-yl)phenyl)-4-(trifluoromethyl)nicotinamide], the IC50 worked out at 7270 nM.

For the compound `CN1CCN(c2ccc(-n3cc(C(=O)NCCCN4CCOCC4)nn3)cc2NC(=O)c2cnc(F)cc2C(F)(F)F)CC1` [Example 11, 6-fluoro-N-(2-(4-methylpiperazin-1-yl)-5-(4-((3-morpholinopropyl)carbamoyl)-1H-1,2,3-triazol-1-yl)phenyl)-4-(trifluoromethyl)nicotinamide], the IC50 was 4230 nM.
